Literature values, collected in publication PMC7770979 (Molecular Metabolism, 2020).

System: IR

SerA12 substitution by alanine: insulin with SerA12 substitution by alanine (ref 34)
Affinity to IR, % of insulin: 36%
